{"source": "patent US11857537B2", "about": "“Use of prostacyclin antagonists for treating ocular surface nociception” (JENIVISION INC., priority 2016, dated 2024)", "key": {"[1]": {"test_system": "ocular surface nociception induced by corneal scarification in Cynomolgus monkeys", "assay": "Mild corneal abrasion (scarification) model of ocular discomfort, nictation (blinking) rate", "format": "in vivo, Cynomolgus monkey", "method": "A prostanoid IP receptor antagonist (4,5-dihydro-N-[4-[[4-(1-methylethoxy)phenyl]methyl]phenyl]-1H-imadazol-2-amine RO-1138452, CAY 10441), at a dose of 0.3% w/v in an aqueous 1% polysorbate 80 in Tris-HCL (a standard ocular vehicle used in testing of ophthalmic drugs), was administered topically to the ocular surface of […] Cynomolgus monkeys. Cynomologus monkeys are the closest animal model for humans. A model that replicates an actual clinically encountered ocular condition, namely corneal abrasion, was employed.\nAs an animal model indicative of both ocular discomfort and pain, mild corneal scarification and measurement of the resultant increased blinking (nictation) rate was employed. The species chosen was the Cynomologous monkey and there are reasons for this selection. […] Increased rate of blinking (nictation) is recognized as a reliable end-point indicative of discomfort and pain and was, therefore, used in the studies described herein. There is a linear correlation between ocular surface sensory-evoked stimulation and blink rate in humans (Wu et al., 2014). Increased blinking frequency is associated with a diverse variety of conditions that elicit ocular discomfort and pain such as air borne noxious contaminants (Lang et al., 2008), acidic solutions (Collejo et al, 2015), dry eye conditions and wearing contact lenses (Wu et al., 2014). Thus, increased blinking rate is a universal indicator of ocular surface nociception resulting in discomfort and pain.\nThe drug formulation was administered post-scarification of the cornea, and at identical time points on two subsequent days. Ocular discomfort was monitored as the nictation (blinking) rate. Blinking is an established human behavioral response to corneal discomfort and irritation (Lang et al., 2008; Wu et al., 2014; Callejo et al., 2015). […]\nA total of eight naïve Cynomolgus monkeys were used. […] The nictation rate (blinking rate) was measured to provide quantification of discomfort. […]"}, "ocular pain": {"test_system": "ocular pain", "assay": "Patient case examples: ocular pain after topical ocular administration", "format": "in vivo, human", "conditions": "Example II: person, extreme ocular discomfort with pain; 0.3% w/v solution, then twice a day", "description": "A person was suffering from extreme ocular discomfort which was associated with pain. […] A person suffers a grade 2 chemical eye burn from an acidic substance. Despite being administered prednisolone acetate 1% every two hours, severe ocular pain persists. The physician will administer Formula 3 from Table I, three times a day. […] After 7-21 days, the patient experiences corneal/conjunctival epithelium and keratocytes proliferate. Collagen synthesis begins. A person suffers from aqueous tear deficient dry eye associated occasionally with moderate to severe sharp ocular pain."}}, "note": "Entries after “also recorded” stand apart in the source; their conditions may differ."}
{"smiles": "CC(C)Oc1ccc(Cc2ccc(NC3=NCCN3)cc2)cc1", "note": "[4,5-dihydro-N-[4-[[4-(1-methylethoxy)phenyl]methyl]phenyl]-1H-imadazol-2-amine]", "values": [{"measurement": "nictation rate in drug treated eyes compared with vehicle", "setting": "[1]; 0.3% w/v topical once daily on Day 4 and Day 5 after corneal scarification on Day 3, n=4 per group, P<0.01 vs vehicle", "value": "statistically significantly lower"}, {"measurement": "ocular surface nociception induced by scarification", "setting": "[1]; 0.3% w/v topical, P≤0.01 non-paired t-test", "value": "significantly reduced"}, {"measurement": "difference in blinking rate, control vs. treated group", "setting": "[1]; two days after the surgery (Day 5-16:00)", "value": "minimal"}, {"measurement": "ocular pain", "setting": "ocular pain", "value": "immediate reduction of ocular pain; also recorded: all pain is reduced and eventually disappears"}]}
